Data as given in patent publication US12162858B2, “Quinoline derivatives as inhibitors of AXL/MER RTK and CSF1R” (QURIENT CO., LTD., priority 2018, dated 2024).
Like-named read-outs stand apart in the source and are kept apart here.

Columns and labels:
[1] = molecular target: T1, Axl (Homo sapiens, UniProt P30530); test: LanthaScreen Eu kinase binding assay for Axl
T1 sequence (P30530 26-894): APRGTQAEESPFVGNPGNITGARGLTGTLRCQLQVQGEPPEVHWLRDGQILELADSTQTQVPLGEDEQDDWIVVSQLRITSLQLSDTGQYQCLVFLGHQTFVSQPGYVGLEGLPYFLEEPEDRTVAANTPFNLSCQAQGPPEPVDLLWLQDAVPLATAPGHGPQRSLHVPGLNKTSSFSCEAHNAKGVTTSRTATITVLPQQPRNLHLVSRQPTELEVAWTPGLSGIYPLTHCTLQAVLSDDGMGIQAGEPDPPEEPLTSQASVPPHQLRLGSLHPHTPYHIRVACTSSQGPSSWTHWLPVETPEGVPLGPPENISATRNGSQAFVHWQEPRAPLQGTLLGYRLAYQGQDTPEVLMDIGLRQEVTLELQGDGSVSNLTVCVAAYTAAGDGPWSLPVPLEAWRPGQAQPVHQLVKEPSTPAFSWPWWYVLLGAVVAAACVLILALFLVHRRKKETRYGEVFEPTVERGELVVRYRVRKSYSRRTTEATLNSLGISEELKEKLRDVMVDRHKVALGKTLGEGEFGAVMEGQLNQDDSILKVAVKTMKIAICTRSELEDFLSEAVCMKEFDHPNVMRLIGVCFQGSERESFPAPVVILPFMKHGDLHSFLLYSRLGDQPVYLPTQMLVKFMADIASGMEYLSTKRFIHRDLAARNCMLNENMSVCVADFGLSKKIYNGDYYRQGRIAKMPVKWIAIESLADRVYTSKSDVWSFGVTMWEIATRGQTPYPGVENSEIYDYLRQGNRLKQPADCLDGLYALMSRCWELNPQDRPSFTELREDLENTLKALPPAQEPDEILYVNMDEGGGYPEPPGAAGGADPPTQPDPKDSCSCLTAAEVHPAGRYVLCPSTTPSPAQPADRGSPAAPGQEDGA
Procedure: (§1) LanthaScreen® Eu Kinase Binding assays were conducted at Life Technologies using the manufacturer's specifications for each kinase indicated.
(§2) Briefly, the principle behind this assay is based upon the binding and displacement of an Alexa Fluor 647-labeled tracer to the kinase of interest. Binding of the tracer to the kinase is detected using an EU-labeled anti-tag antibody. Simultaneous binding of both the tracer and antibody to the kinase gives rise to a FRET-signal. Binding of an inhibitor to the kinase competes for binding with the tracer, resulting in a loss of FRET-signal.
(§3) A given compound was diluted in DMSO to make a stock compound solution. The stock compound solution was serially diluted over eight steps in DMSO. Each diluted compound solution in DMSO was diluted in kinase buffer. Afterwards four kinds of working solution were prepared. First, Tracer-Working solution consists of Tracer 236 and Kinase Buffer. Second, Axl, Mer, Tyro3 or Met/anti-GST-AB-Working solution contained one of the kinases Axl, and Mer or anti-GST-AB (=anti glutathione-S-transferase antibody) in Kinase Buffer. Third, anti-GST-AB-Working solution was made with anti-GST-AB and Kinase Buffer. Last, in the DMSO-Working solution DMSO was added to Kinase Buffer to a final concentration to 3%. Each of the four kinds of working solutions were separately added to the assay plate and then incubated for 1 h at room temperature. After incubation, the assay plate was measured with respect to the FRET-Signal with the EnVision (Perkin Elmer) using the program LanthaHTRF-Assay. Data evaluation was done in the Quattro Workflow software. Kd (the equilibrium dissociation constant) values were calculated relative to vehicle (DMSO) control wells.

[2] = molecular target: T2, Mer (Homo sapiens, UniProt Q12866); test: LanthaScreen Eu kinase binding assay for Mer
T2 construct: purchased Life Technologies
T2 sequence (Q12866 21-999): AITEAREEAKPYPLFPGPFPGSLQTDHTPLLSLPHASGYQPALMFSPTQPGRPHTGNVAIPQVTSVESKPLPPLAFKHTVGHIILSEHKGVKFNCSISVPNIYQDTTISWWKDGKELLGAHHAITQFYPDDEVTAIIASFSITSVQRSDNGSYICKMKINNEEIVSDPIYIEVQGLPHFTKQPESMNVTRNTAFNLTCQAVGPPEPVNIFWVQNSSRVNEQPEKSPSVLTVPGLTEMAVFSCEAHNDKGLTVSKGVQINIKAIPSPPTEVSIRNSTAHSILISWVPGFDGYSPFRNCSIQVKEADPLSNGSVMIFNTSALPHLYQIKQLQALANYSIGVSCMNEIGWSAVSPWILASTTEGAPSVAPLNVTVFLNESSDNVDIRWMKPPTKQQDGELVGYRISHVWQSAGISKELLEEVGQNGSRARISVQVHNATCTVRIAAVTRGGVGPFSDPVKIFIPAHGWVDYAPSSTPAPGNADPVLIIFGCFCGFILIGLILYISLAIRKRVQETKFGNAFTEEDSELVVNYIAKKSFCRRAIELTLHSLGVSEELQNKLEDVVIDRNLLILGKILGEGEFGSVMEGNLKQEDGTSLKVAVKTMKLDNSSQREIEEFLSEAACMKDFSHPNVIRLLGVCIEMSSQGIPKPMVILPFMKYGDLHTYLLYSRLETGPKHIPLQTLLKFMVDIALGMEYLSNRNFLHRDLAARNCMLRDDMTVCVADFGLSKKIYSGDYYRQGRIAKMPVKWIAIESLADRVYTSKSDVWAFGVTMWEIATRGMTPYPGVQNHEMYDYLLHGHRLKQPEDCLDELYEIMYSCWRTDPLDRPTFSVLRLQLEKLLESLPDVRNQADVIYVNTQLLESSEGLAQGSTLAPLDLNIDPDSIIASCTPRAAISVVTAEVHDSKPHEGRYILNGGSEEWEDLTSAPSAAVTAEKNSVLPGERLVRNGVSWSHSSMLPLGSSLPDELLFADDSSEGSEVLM
Procedure: as §1, §2, §3

[3] = read-out: Axl kinase binding activity (Kd)
[4] = read-out: Mer kinase binding activity (Kd)
[5] = comparison of compounds of present invention (**) vs compounds of WO2016/166250 (*), read-out: Binding activity Axl (Kd)
[6] = comparison of compounds of present invention (**) vs compounds of WO2016/166250 (*), read-out: Binding activity Mer (Kd)

Row | SMILES | Kd [1, 3] | Kd [2, 4] | Kd [1, 5] | Kd [2, 6]
1 | COc1cc2nccc(Oc3ccc(NC(=O)c4nn(C5CC5)cc4OC(C)C)nc3)c2cc1OC [Compound 108] | < 100 nM | < 100 nM |  | 
2 | COc1cc2nccc(Oc3ccc(NC(=O)c4nn(CC(C)C)cc4OCC(F)(F)F)cn3)c2cc1OC [Compound 103] | < 100 nM | < 100 nM |  | 
3 | COCCn1cc(OCC(F)(F)F)c(C(=O)Nc2ccc(Oc3ccnc4cc(OC)c(OC)cc34)nc2)n1 [Compound 104] | < 100 nM | < 100 nM |  | 
4 | COc1cc2nccc(Oc3ccc(NC(=O)c4nn(CCOC5CC5)cc4OCC(F)(F)F)cn3)c2cc1OC [Compound 130] | < 100 nM | < 100 nM |  | 
5 | COCCn1cc(OCC(F)(F)F)c(C(=O)Nc2ccc(Oc3ccnc4cc(OC)c(OC)cc34)cn2)n1 [Compound 10] | < 100 nM | < 100 nM | 3.2 nM | 0.2 nM
6 | CNCCn1cc(OCC(F)(F)F)c(C(=O)Nc2ccc(Oc3ccnc4cc(OC)c(OC)cc34)cc2)n1 [Compound 119] | 100 to 500 nM | 100 to 500 nM |  | 
7 | CNCCn1cc(OCC(F)(F)F)c(C(=O)Nc2ccc(Oc3ccnc4cc(OC)c(OC)cc34)cn2)n1 [Compound 11] | < 100 nM | < 100 nM |  | 
8 | COc1cc2nccc(Oc3ccc(NC(=O)c4nn(C5CCN(C)C5)cc4OCC(F)(F)F)nn3)c2cc1OC (stereo not drawn) [Compound 157] | 100 to 500 nM | 100 to 500 nM |  | 
9 | CCn1cc(OCC(F)(F)F)c(C(=O)Nc2ccc(Oc3ccnc4cc(OC)c(OC)cc34)cn2)n1 [Compound 4] | < 100 nM | < 100 nM | 1.1 nM | 1.6 nM
10 | COc1cc2nccc(Oc3ccc(NC(=O)c4nn(C5CC5)cc4OCC4COC4)nc3)c2cc1OC [Compound 143] | < 100 nM | < 100 nM |  | 
11 | COc1cc2nccc(Oc3ccc(NC(=O)c4nn(CC5COC5)cc4OCC(F)(F)F)cc3C)c2cc1OC [Compound 99] | < 100 nM | < 100 nM |  | 
12 | COc1cc2nccc(Oc3ccc(NC(=O)c4nn(C5CCOC5)cc4OCC(F)(F)F)cn3)c2cc1OC (stereo not drawn) [Compound 138] | < 100 nM | < 100 nM |  | 
13 | CCCn1cc(OCC2CNC2)c(C(=O)Nc2ccc(Oc3ccnc4cc(OC)c(OC)cc34)cn2)n1 [Compound 159] | ≥ 500 nM | ≥ 500 nM |  | 
14 | COCCOc1cn(CC(C)O)nc1C(=O)Nc1ccc(Oc2ccnc3cc(OC)c(OC)cc23)cn1 (stereo not drawn) [Compound 150] | < 100 nM | < 100 nM |  | 
15 | COc1cc2nccc(Oc3ccc(NC(=O)c4n[nH]cc4OCC(F)(F)F)nc3)c2cc1OC [Compound 16] | < 100 nM | < 100 nM | 19 nM | 12 nM
16 | COc1cc2nccc(Oc3ccc(NC(=O)c4nn(CC5COC5)cc4OCC(F)(F)F)cn3)c2cc1OC [Compound 134] | < 100 nM | < 100 nM |  | 
17 | COc1cc2nccc(Oc3ccc(NC(=O)c4nn(CCO)cc4OCC(F)(F)F)cn3)c2cc1OC [Compound 129] | 100 to 500 nM | 100 to 500 nM |  | 
18 | COc1cc2nccc(Oc3ccc(NC(=O)c4nn(CC5COC5)cc4OCC(F)(F)F)cc3)c2cc1OC [Compound 101] | < 100 nM | < 100 nM |  | 

Row | SMILES | Kd [1, 3] | Kd [2, 4] | Kd [1, 5] | Kd [2, 6]
19 | COc1cc2nccc(Oc3ccc(NC(=O)c4nn(C5CC5)cc4OCCF)nc3)c2cc1OC [Compound 110] | < 100 nM | < 100 nM |  | 
20 | COc1cc2nccc(Oc3ccc(NC(=O)c4nn(C5CC5)cc4OCC(F)F)nc3)c2cc1OC [Compound 109] | < 100 nM | < 100 nM |  | 
21 | COc1cc2nccc(Oc3ccc(NC(=O)c4nn(CCOC5CC5)cc4OCC(F)(F)F)c(F)c3)c2cc1OC [Compound 115] | < 100 nM | < 100 nM |  | 
22 | CCCn1cc(OCC(F)(F)F)c(C(=O)Nc2ccc(Oc3ccnc4cc(OC)c(OC)cc34)c(C(F)(F)F)c2)n1 [Compound 114] | < 100 nM | < 100 nM |  | 
23 | CCCn1cc(OCCNC)c(C(=O)Nc2ccc(Oc3ccnc4cc(OC)c(OC)cc34)cn2)n1 [Compound 140] | ≥ 500 nM | 100 to 500 nM |  | 
24 | COc1cc2nccc(Oc3ccc(NC(=O)c4nn(CC5COC5)cc4OCC(F)(F)F)cc3F)c2cc1OC [Compound 97] | < 100 nM | < 100 nM |  | 
25 | COc1cc2nccc(Oc3ccc(NC(=O)c4nn(C5CC5)cc4NCC(F)(F)F)nn3)c2cc1OC [Compound 148] | < 100 nM | < 100 nM |  | 
26 | COc1cc2nccc(Oc3ccc(NC(=O)c4nn(CC(C)O)cc4OCCF)nc3)c2cc1OC (stereo not drawn) [Compound 152] | < 100 nM | < 100 nM |  | 
27 | CCCn1cc(NCCC(F)(F)F)c(C(=O)Nc2ccc(Oc3ccnc4cc(OC)c(OC)cc34)cn2)n1 [Compound 158] | < 100 nM | < 100 nM |  | 
28 | COc1cc2nccc(Oc3ccc(NC(=O)c4nn(C5CC5)cc4NCCC(F)(F)F)nc3)c2cc1OC [Compound 142] | < 100 nM | < 100 nM |  | 
29 | COc1cc2nccc(Oc3ccc(NC(=O)c4nn(CC(C)O)cc4OCC4CCC4)nc3)c2cc1OC (stereo not drawn) [Compound 163] | < 100 nM | < 100 nM |  | 
30 | CCCn1cc(OCC(F)(F)F)c(C(=O)Nc2ccc(Oc3ccnc4cc(OC)c(OC)cc34)nc2)n1 [Compound 139] | < 100 nM | < 100 nM |  | 
31 | COCCn1cc(OCC(F)(F)F)c(C(=O)Nc2ccc(Oc3ccnc4cc(OC)c(OC)cc34)nn2)n1 [Compound 126] | < 100 nM | < 100 nM |  | 
32 | CNCCOc1cn(C2CC2)nc1C(=O)Nc1ccc(Oc2ccnc3cc(OC)c(OC)cc23)cn1 [Compound 141] | ≥ 500 nM | ≥ 500 nM |  | 
33 | COc1cc2nccc(Oc3ccc(NC(=O)c4nn(C5CC5)cc4OCC4COC4)nn3)c2cc1OC [Compound 161] | < 100 nM | < 100 nM |  | 
34 | COc1cc2nccc(Oc3ccc(NC(=O)c4nn(C5CCN(C)C5)cc4OCC(F)(F)F)cc3C)c2cc1OC (stereo not drawn) [Compound 98] | 100 to 500 nM | < 100 nM |  | 
35 | COc1cc2nccc(Oc3ccc(NC(=O)c4nn(CCN)cc4OCC(F)(F)F)nn3)c2cc1OC [Compound 125] | ≥ 500 nM | ≥ 500 nM |  | 
36 | CCCn1cc(OCCOC)c(C(=O)Nc2ccc(Oc3ccnc4cc(OC)c(OC)cc34)cn2)n1 [Compound 105] | < 100 nM | < 100 nM |  | 
